Measurements as given in US20050022267A1, “Methods for Agrobacterium-mediated transformation of dandelion” (priority 2003, published 2005).

Legend:
[1] = test system: dandelion leaf explants; assay: Effect of phyto-hormones on dandelion regeneration: adventitious shoot formation of leaf explants on seedling media; format: cell-based; conditions: for number of regenerated shoots per explant / percentage of leaf explants displaying adventitious shoot formation: four weeks
Experimental: Dandelion seeds are surface-sterilized in approximately 70% (volume/volume, v/v) ethanol for 30 sec in the bottle. The ethanol is removed and the seeds are soaked in approximately 1% (v/v) bleach with gentle agitation for about 15 minutes. The bleach is poured off and the […] are rinsed thoroughly about 3-4 times with sterilized distilled water. Seeds are germinated and in vitro cultured in the sterile bottles containing seedling medium (Table 1). Over one month-old seedlings are used as stock plants for leaf and root explants. The leaves and roots of stock plants are placed in a petri plate with droplets of sterile water. Explants of leaves (ca. 0.5 cm in diameter) and of roots (ca. 0.5 cm in length) were excised from dandelion plants. Approximately 15 to 20 explants per plate are positioned with the adaxial surface down onto pre-incubation medium (Table 2). The plates are incubated under mixed white and red lights for about 6 days at about 22° C. […] Parentheses indicate the number of regenerated shoots per explant.

[2] = test system: dandelion leaf explants; assay: Effect of maltose on shoot regeneration in shoot induction media; format: cell-based; conditions: 1% maltose (w/v) in shoot induction media
Experimental: Leaf explants derived from dandelion plants were cultured in shoot induction media containing no maltose (w/v) or 1% maltose (w/v) to compare the efficacy of maltose on shoot production.

[3] = isolated from dandelion roots; cited from earlier work
[4] = 6-benzyladenine 0.25 mg/L, α-naphthalene acetic acid 0 mg/L
[5] = 6-benzyladenine 0.25 mg/L, α-naphthalene acetic acid 0.1 mg/L
[6] = 6-benzyladenine 0.25 mg/L, α-naphthalene acetic acid 0.5 mg/L
[7] = 6-benzyladenine 0.25 mg/L, α-naphthalene acetic acid 1.0 mg/L
[8] = 6-benzyladenine 0.25 mg/L, α-naphthalene acetic acid 2.0 mg/L
[9] = 6-benzyladenine 0.5 mg/L, α-naphthalene acetic acid 0 mg/L
[10] = 6-benzyladenine 0.5 mg/L, α-naphthalene acetic acid 0.1 mg/L
[11] = 6-benzyladenine 0.5 mg/L, α-naphthalene acetic acid 0.5 mg/L
[12] = 6-benzyladenine 0.5 mg/L, α-naphthalene acetic acid 1.0 mg/L
[13] = 6-benzyladenine 0.5 mg/L, α-naphthalene acetic acid 2.0 mg/L
[14] = 6-benzyladenine 1.0 mg/L, α-naphthalene acetic acid 0 mg/L
[15] = 6-benzyladenine 1.0 mg/L, α-naphthalene acetic acid 0.1 mg/L
[16] = 6-benzyladenine 1.0 mg/L, α-naphthalene acetic acid 0.5 mg/L
[17] = 6-benzyladenine 1.0 mg/L, α-naphthalene acetic acid 1.0 mg/L
[18] = 6-benzyladenine 1.0 mg/L, α-naphthalene acetic acid 2.0 mg/L
[19] = 6-benzyladenine 2.0 mg/L, α-naphthalene acetic acid 0 mg/L
[20] = 6-benzyladenine 2.0 mg/L, α-naphthalene acetic acid 0.1 mg/L
[21] = 6-benzyladenine 2.0 mg/L, α-naphthalene acetic acid 0.5 mg/L
[22] = 6-benzyladenine 2.0 mg/L, α-naphthalene acetic acid 1.0 mg/L
[23] = 6-benzyladenine 2.0 mg/L, α-naphthalene acetic acid 2.0 mg/L
[24] = kinetin 0.5 mg/L, α-naphthalene acetic acid 0 mg/L
[25] = kinetin 0.5 mg/L, α-naphthalene acetic acid 0.1 mg/L
[26] = kinetin 0.5 mg/L, α-naphthalene acetic acid 0.5 mg/L
[27] = kinetin 0.5 mg/L, α-naphthalene acetic acid 1.0 mg/L
[28] = kinetin 0.5 mg/L, α-naphthalene acetic acid 2.0 mg/L
[29] = kinetin 1.0 mg/L, α-naphthalene acetic acid 0 mg/L
[30] = kinetin 1.0 mg/L, α-naphthalene acetic acid 0.1 mg/L
[31] = kinetin 1.0 mg/L, α-naphthalene acetic acid 0.5 mg/L
[32] = kinetin 1.0 mg/L, α-naphthalene acetic acid 1.0 mg/L
[33] = kinetin 1.0 mg/L, α-naphthalene acetic acid 2.0 mg/L
[34] = kinetin 2.0 mg/L, α-naphthalene acetic acid 0 mg/L
[35] = kinetin 2.0 mg/L, α-naphthalene acetic acid 0.1 mg/L
[36] = kinetin 2.0 mg/L, α-naphthalene acetic acid 0.5 mg/L
[37] = kinetin 2.0 mg/L, α-naphthalene acetic acid 1.0 mg/L
[38] = kinetin 2.0 mg/L, α-naphthalene acetic acid 2.0 mg/L
[39] = kinetin 3.0 mg/L, α-naphthalene acetic acid 0 mg/L
[40] = kinetin 3.0 mg/L, α-naphthalene acetic acid 0.1 mg/L
[41] = kinetin 3.0 mg/L, α-naphthalene acetic acid 0.5 mg/L
[42] = kinetin 3.0 mg/L, α-naphthalene acetic acid 1.0 mg/L
[43] = kinetin 3.0 mg/L, α-naphthalene acetic acid 2.0 mg/L
[44] = α-naphthalene acetic acid 0.1 mg/L, 6-benzyladenine 0 mg/L
[45] = α-naphthalene acetic acid 0.1 mg/L, kinetin 0 mg/L
[46] = α-naphthalene acetic acid 0.5 mg/L, 6-benzyladenine 0 mg/L
[47] = α-naphthalene acetic acid 0.5 mg/L, kinetin 0 mg/L
[48] = α-naphthalene acetic acid 1.0 mg/L, 6-benzyladenine 0 mg/L
[49] = α-naphthalene acetic acid 1.0 mg/L, kinetin 0 mg/L
[50] = α-naphthalene acetic acid 2.0 mg/L, 6-benzyladenine 0 mg/L
[51] = α-naphthalene acetic acid 2.0 mg/L, kinetin 0 mg/L

Compound: 6-benzyladenine
- suitability for shoot regeneration of dandelion ([1]; 1 or 2 mg/l 6-benzyladenine and 0.1 mg/l α-naphthalene acetic acid): most suitable for shoot regeneration
- number of regenerated shoots per explant [1, 4]: (21.2) shoots per explant
- percentage of leaf explants displaying adventitious shoot formation [1, 4]: 60.0%
- number of regenerated shoots per explant [1, 5]: (16.3) shoots per explant
- percentage of leaf explants displaying adventitious shoot formation [1, 5]: 63.0%
- number of regenerated shoots per explant [1, 6]: (12.0) shoots per explant
- percentage of leaf explants displaying adventitious shoot formation [1, 6]: 78.0%
- number of regenerated shoots per explant [1, 7]: (24.5) shoots per explant
- percentage of leaf explants displaying adventitious shoot formation [1, 7]: 97.0%
- number of regenerated shoots per explant [1, 8]: (3.6) shoots per explant
- percentage of leaf explants displaying adventitious shoot formation [1, 8]: 90.0%
- number of regenerated shoots per explant [1, 9]: (17.4) shoots per explant
- percentage of leaf explants displaying adventitious shoot formation [1, 9]: 75.0%
- number of regenerated shoots per explant [1, 10]: (23.8) shoots per explant
- percentage of leaf explants displaying adventitious shoot formation [1, 10]: 99.9%
- number of regenerated shoots per explant [1, 11]: (23.7) shoots per explant
- percentage of leaf explants displaying adventitious shoot formation [1, 11]: 99.9%
- number of regenerated shoots per explant [1, 12]: (21.7) shoots per explant
- percentage of leaf explants displaying adventitious shoot formation [1, 12]: 88.0%
- number of regenerated shoots per explant [1, 13]: (3.2) shoots per explant
- percentage of leaf explants displaying adventitious shoot formation [1, 13]: 40.0%
- number of regenerated shoots per explant [1, 14]: (17.4) shoots per explant
- percentage of leaf explants displaying adventitious shoot formation [1, 14]: 85.0%
- number of regenerated shoots per explant [1, 15]: (25.1) shoots per explant
- percentage of leaf explants displaying adventitious shoot formation [1, 15]: 99.9%
- number of regenerated shoots per explant [1, 16]: (20.4) shoots per explant
- percentage of leaf explants displaying adventitious shoot formation [1, 16]: 99.9%
- number of regenerated shoots per explant [1, 17]: (13.1) shoots per explant
- percentage of leaf explants displaying adventitious shoot formation [1, 17]: 83.0%
- number of regenerated shoots per explant [1, 18]: (5.9) shoots per explant
- percentage of leaf explants displaying adventitious shoot formation [1, 18]: 99.9%
- number of regenerated shoots per explant [1, 19]: (16.0) shoots per explant
- percentage of leaf explants displaying adventitious shoot formation [1, 19]: 99.9%
- number of regenerated shoots per explant [1, 20]: (17.4) shoots per explant
- percentage of leaf explants displaying adventitious shoot formation [1, 20]: 99.9%
- number of regenerated shoots per explant [1, 21]: (20.7) shoots per explant
- percentage of leaf explants displaying adventitious shoot formation [1, 21]: 99.9%
- number of regenerated shoots per explant [1, 22]: (8.5) shoots per explant
- percentage of leaf explants displaying adventitious shoot formation [1, 22]: 99.9%
- number of regenerated shoots per explant [1, 23]: (5.4) shoots per explant
- percentage of leaf explants displaying adventitious shoot formation [1, 23]: 99.9%

Compound: OC[C@H]1O[C@H](O[C@H]2[C@H](O)[C@@H](O)C(O)O[C@@H]2CO)[C@H](O)[C@@H](O)[C@@H]1O (mixture of isomers) [Maltose, maltose]
- shoot production in comparison to no maltose [2]: improves shoot production
- # of Shoots per Explants ([2]; leaf explants): 25

Compound: c1coc(CNc2ncnc3[nH]cnc23)c1 [Kinetin, kinetin]
- suitability for dandelion shoot regeneration ([1]; 0.05 mg/l α-naphthalene acetic acid and 1.0 mg/l kinetin or 0.1 mg/l α-naphthalene acetic acid and 2.0 mg/l kinetin): also suitable for dandelion shoot regeneration
- number of regenerated shoots per explant [1, 24]: (24.8) shoots per explant
- percentage of leaf explants displaying adventitious shoot formation [1, 24]: 99.9%
- number of regenerated shoots per explant [1, 25]: (19.8) shoots per explant
- percentage of leaf explants displaying adventitious shoot formation [1, 25]: 96.7%
- number of regenerated shoots per explant [1, 26]: (16.9) shoots per explant
- percentage of leaf explants displaying adventitious shoot formation [1, 26]: 99.9%
- number of regenerated shoots per explant [1, 27]: (8.1) shoots per explant
- percentage of leaf explants displaying adventitious shoot formation [1, 27]: 99.9%
- number of regenerated shoots per explant [1, 28]: (5.8) shoots per explant
- percentage of leaf explants displaying adventitious shoot formation [1, 28]: 99.9%
- number of regenerated shoots per explant [1, 29]: (22.7) shoots per explant
- percentage of leaf explants displaying adventitious shoot formation [1, 29]: 99.9%
- number of regenerated shoots per explant [1, 30]: (23.4) shoots per explant
- percentage of leaf explants displaying adventitious shoot formation [1, 30]: 99.9%
- number of regenerated shoots per explant [1, 31]: (16.8) shoots per explant
- percentage of leaf explants displaying adventitious shoot formation [1, 31]: 99.9%
- number of regenerated shoots per explant [1, 32]: (6.7) shoots per explant
- percentage of leaf explants displaying adventitious shoot formation [1, 32]: 99.9%
- number of regenerated shoots per explant [1, 33]: (9.8) shoots per explant
- percentage of leaf explants displaying adventitious shoot formation [1, 33]: 99.9%
- number of regenerated shoots per explant [1, 34]: (21.9) shoots per explant
- percentage of leaf explants displaying adventitious shoot formation [1, 34]: 95.0%
- number of regenerated shoots per explant [1, 35]: (23.6) shoots per explant
- percentage of leaf explants displaying adventitious shoot formation [1, 35]: 99.9%
- number of regenerated shoots per explant [1, 36]: (20.3) shoots per explant
- percentage of leaf explants displaying adventitious shoot formation [1, 36]: 99.9%
- number of regenerated shoots per explant [1, 37]: (13.4) shoots per explant
- percentage of leaf explants displaying adventitious shoot formation [1, 37]: 95.5%
- number of regenerated shoots per explant [1, 38]: (7.3) shoots per explant
- percentage of leaf explants displaying adventitious shoot formation [1, 38]: 96.2%
- number of regenerated shoots per explant [1, 39]: (14.7) shoots per explant
- percentage of leaf explants displaying adventitious shoot formation [1, 39]: 99.9%
- number of regenerated shoots per explant [1, 40]: (19.3) shoots per explant
- percentage of leaf explants displaying adventitious shoot formation [1, 40]: 99.9%
- number of regenerated shoots per explant [1, 41]: (25.5) shoots per explant
- percentage of leaf explants displaying adventitious shoot formation [1, 41]: 99.9%
- number of regenerated shoots per explant [1, 42]: (8.9) shoots per explant
- percentage of leaf explants displaying adventitious shoot formation [1, 42]: 99.9%
- number of regenerated shoots per explant [1, 43]: (8.1) shoots per explant
- percentage of leaf explants displaying adventitious shoot formation [1, 43]: 99.9%

Compound: C=C1CC[C@]2(C)CC[C@]3(C)[C@H](CC[C@@H]4[C@@]5(C)CC[C@H](O)C(C)(C)[C@@H]5CC[C@]43C)[C@H]2[C@@H]1C [taraxasterol]
- anti-tumor-promoting activity [3]: potent anti-tumor-promoting activity

Compound: CC1(C)CC[C@]2(C)CC=C3[C@]4(C)CC[C@H]5C(C)(C)[C@@H](O)CC[C@]5(C)[C@H]4CC[C@@]3(C)[C@@H]2C1 [taraxerol]
- anti-tumor-promoting activity [3]: potent anti-tumor-promoting activity

Compound: O=C(O)Cc1cccc2ccccc12 [α-Naphthalene acetic acid, α-naphthalene acetic acid]
- number of regenerated shoots per explant [1, 44]: (0.0) shoots per explant
- percentage of leaf explants displaying adventitious shoot formation [1, 44]: 0.0%
- number of regenerated shoots per explant [1, 45]: (0.0) shoots per explant
- percentage of leaf explants displaying adventitious shoot formation [1, 45]: 0.0%
- number of regenerated shoots per explant [1, 46]: (2.0) shoots per explant
- percentage of leaf explants displaying adventitious shoot formation [1, 46]: 20.0%
- number of regenerated shoots per explant [1, 47]: (0.0) shoots per explant
- percentage of leaf explants displaying adventitious shoot formation [1, 47]: 0.0%
- number of regenerated shoots per explant [1, 48]: (0.0) shoots per explant
- percentage of leaf explants displaying adventitious shoot formation [1, 48]: 0.0%
- number of regenerated shoots per explant [1, 49]: (0.0) shoots per explant
- percentage of leaf explants displaying adventitious shoot formation [1, 49]: 5.0%
- number of regenerated shoots per explant [1, 50]: (0.0) shoots per explant
- percentage of leaf explants displaying adventitious shoot formation [1, 50]: 0.0%
- number of regenerated shoots per explant [1, 51]: (0.0) shoots per explant
- percentage of leaf explants displaying adventitious shoot formation [1, 51]: 0.0%
